From patent US7851443B2, “Combination comprising combretastatin and anticancer agents” (Aventis Pharma SA, priority 2005, dated 2010)

Experiments:
[1] = system: MA13/C murine mammary adenocarcinoma tumor; assay: Antitumor effect on advanced MA13/C murine mammary adenocarcinoma grafted subcutaneously in mice; type: in vivo, female C3H/HeN mice
Procedure: This efficacy can be quantified, for example by the log10 cell kill, which is determined by the following formula: log10 cell kill=T-C (days)/3.32×Td in which T-C represents the delay in tumor growth, which is the average time, in days, taken by the tumors of the treated group (T) to reach a predetermined value (1 g for example) and for the tumors of the control group (C) to reach the same value, and Td represents the time, in days, necessary for the volume of the tumors in the control group to double. During the exponential phase of tumor growth (T. H. Corbett et al., Cancer, 40, 2660.2680 (1977); F. M. Schabel et al., Cancer Drug Development, Part B, Methods in Cancer Research, 17, 3-51, New York, Academic Press Inc. (1979)). A product is considered to be active if the log10 cell kill is greater than or equal to 0.7.
The efficacy of the combinations of solid tumors can be determined experimentally in the following way:
(§1) The animals subjected to the experiment are female C3H/HeN mice which are bilaterally grafted subcutaneously with 30 to 60 mg of a fragment of MA13/C murine mammary adenocarcinoma tumor at day 0. In the case of an early tumor treatment, the implanted animals are distributed randomly in various groups which are or are not (controls) intended to receive the treatment(s). […] Generally, the chemotherapy begins from 3 to 22 days after the graft, according to the type of tumor and the desired tumor size. The animals are observed and weighed every day. A dose which induces a weight loss of 20% or more at the lowest point (average of the group) or a mortality of 10% or more is considered to be toxic. The tumoral activity is evaluated at the highest nontoxic dose.
The tumors are measured 2 or 3 times a week until the tumor reaches approximately 2 g or until the animal dies, if this occurs before the tumor reaches 2 g. The animals are autopsied when they are sacrificed.
The antitumor activity is determined in accordance with various recorded parameters, such as the dose (mg/kg), the method of administration, the administration time, the toxicity and the log cell kill, which depends on the delay in tumor growth and also on the tumor doubling time.

[2] = Toxicity (mortality, weight loss) in tumor-bearing mice; type: in vivo, female C3H/HeN mice
Procedure: as §1

[3] = VEGF Trap SC 10.0 mg/kg per administration, days 21, 25, total dose 20.0 mg/kg
[4] = VEGF Trap SC 25.0 mg/kg per administration, days 21, 25, total dose 50.0 mg/kg
[5] = VEGF Trap SC 40.0 mg/kg per administration, days 21, 25, total dose 80.0 mg/kg
[6] = Formula (IIa) IV 22.3 mg/kg per administration, days 21, 25, total dose 44.6 mg/kg
[7] = Formula (IIa) IV 36.0 mg/kg per administration, days 21, 25, total dose 72.0 mg/kg
[8] = Formula (IIa) IV 58.0 mg/kg per administration, days 21, 25, total dose 116.0 mg/kg
[9] = Formula (IIa) IV 93.5 mg/kg per administration, days 21, 25, total dose 187.0 mg/kg

VEGF Trap: fusion protein: VEGFR1 signal sequence, Ig domain D2 of VEGFR1, Ig domain D3 of VEGFR2, IgG1 Fc domain
Comments [1, 3]: Inactive | Log cell kill [1, 3]: 0.1 | Regression Complete [1, 3]: 0/5 | Regression Partial [1, 3]: 0/5 | T-C [1, 3]: 0.4 days | Time to reach tumor size of 1000 mg (median) [1, 3]: 24.2 days | Comments [1, 4]: Inactive | Log cell kill [1, 4]: 0.4 | Regression Complete [1, 4]: 0/5 | Regression Partial [1, 4]: 0/5 | T-C [1, 4]: 2.8 days | Time to reach tumor size of 1000 mg (median) [1, 4]: 26.6 days | Log cell kill [1, 5]: 0.1 | Regression Complete [1, 5]: 0/5 | Regression Partial [1, 5]: 0/5 | T-C [1, 5]: 0.8 days | Time to reach tumor size of 1000 mg (median) [1, 5]: 24.6 days | Comments ([1]; VEGF Trap SC 40.0 mg/kg per administration, days 21, 25, total dose 80.0 mg/kg (MAD)): inactive | Average weight loss as % per mouse at the lowest point (day of the lowest point) [2, 3]: 0.4 (23) % | Mortality related to the agent (day of death) [2, 3]: 0/5 | Average weight loss as % per mouse at the lowest point (day of the lowest point) [2, 4]: 1.8 (23) % | Mortality related to the agent (day of death) [2, 4]: 0/5 | Average weight loss as % per mouse at the lowest point (day of the lowest point) [2, 5]: 1.3 (23) % | Mortality related to the agent (day of death) [2, 5]: 0/5

COc1ccc(/C=C\c2cc(OC)c(OC)c(OC)c2)cc1NC(=O)C(N)CO (stereo not shown) [Formula (IIa)]
Comments [1, 6]: Inactive | Log cell kill [1, 6]: 0.4 | Regression Complete [1, 6]: 0/5 | Regression Partial [1, 6]: 0/5 | T-C [1, 6]: 3.4 days | Time to reach tumor size of 1000 mg (median) [1, 6]: 27.2 days | Comments [1, 7]: Inactive | Log cell kill [1, 7]: 0.5 | Regression Complete [1, 7]: 0/5 | Regression Partial [1, 7]: 0/5 | T-C [1, 7]: 4.1 days | Time to reach tumor size of 1000 mg (median) [1, 7]: 27.9 days | Comments [1, 8]: inactive | Log cell kill [1, 8]: 0.6 | Regression Complete [1, 8]: 0/5 | Regression Partial [1, 8]: 0/5 | T-C [1, 8]: 5.1 days | Time to reach tumor size of 1000 mg (median) [1, 8]: 28.9 days | Average weight loss as % per mouse at the lowest point (day of the lowest point) [2, 6]: 0.6 (22) % | Mortality related to the agent (day of death) [2, 6]: 0/5 | Average weight loss as % per mouse at the lowest point (day of the lowest point) [2, 7]: 2.1 (22) % | Mortality related to the agent (day of death) [2, 7]: 0/5 | Average weight loss as % per mouse at the lowest point (day of the lowest point) [2, 8]: 3.8 (22) % | Comments (dose level) [2, 8]: HNTD | Mortality related to the agent (day of death) [2, 8]: 0/5 | Average weight loss as % per mouse at the lowest point (day of the lowest point) [2, 9]: 7.4 (26) % | Comments [2, 9]: Toxic | Mortality related to the agent (day of death) [2, 9]: 1/5 (23)
